Laboratory results published in patent publication US20230085307A1, “PYRIDAZINONE COMPOUND AND HERBICIDE” (NISSAN CHEMICAL CORPORATION, priority 2019, published 2023).

Columns and labels:
late watergrass = assay: Test Example 1: herbicidal activity, application before weed generation under submerged conditions (Table 16, symbol A); format: in vivo, late watergrass (Echinochloa oryzicola); conditions: amount of applied herbicide 320 g/ha
Method in brief: (§1)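 Alluvial soil was flooded to 4 cm depth, weed seeds were sown mixed and 2.5-leaf rice seedlings were transplanted. On sowing day, the compound's emulsion, diluted in water to a set dose, was applied to the water surface. Plants grew at 25–30 °C and were scored 0–5 after three weeks.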

Japanese bulrush = assay: Test Example 1: herbicidal activity, application before weed generation under submerged conditions (Table 16, symbol B); format: in vivo, Japanese bulrush (Schoenoplectus juncoides); conditions: amount of applied herbicide 320 g/ha
Method in brief: as §1

oval-leafed pondweed = assay: Test Example 1: herbicidal activity, application before weed generation under submerged conditions (Table 16, symbol C); format: in vivo, oval-leafed pondweed (Monochoria vaginalis); conditions: amount of applied herbicide 320 g/ha
Method in brief: as §1

barnyard grass [1] = assay: Test Example 3: herbicidal effect by foliage application, Wagner pot (Table 18, symbol H); format: in vivo, barnyard grass (Echinochloa crus-galli); conditions: 320 g/ha
Method in brief: (§2)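 Plants were sown in alluvial soil held under 0.1–0.5 cm standing water and grown 14 days in a greenhouse at 25–30 °C. An emulsifiable formulation, water-diluted to the set dose, was then sprayed onto the foliage, and effects were scored three weeks later using previously defined criteria.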

Chinese sprangletop = assay: Test Example 3: herbicidal effect by foliage application, Wagner pot (Table 18, symbol D); format: in vivo, chinese sprangletop (Leptochloa chinensis); conditions: 320 g/ha
Method in brief: as §2

rice flat sedge = assay: Test Example 3: herbicidal effect by foliage application, Wagner pot (Table 18, symbol E); format: in vivo, rice flat sedge (Cyperus iria); conditions: 320 g/ha
Method in brief: as §2

southern crabgrass [2] = assay: Test Example 5: herbicidal effect by foliage application, plastic box (Table 20, symbol F); format: in vivo, southern crabgrass (Digitaria ciliaris); conditions: amount of applied herbicide 320 g/ha; foliage application after 14-day growth; evaluated three weeks after application
Method in brief: (§3)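 Post-emergence foliar test in sterilized diluvial soil. Compound applied as water-diluted emulsion at a predetermined rate to 14-day-old plants; evaluation at three weeks.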

green foxtail [3] = assay: Test Example 5: herbicidal effect by foliage application, plastic box (Table 20, symbol G); format: in vivo, green foxtail (Setaria viridis); conditions: amount of applied herbicide 320 g/ha; foliage application after 14-day growth; evaluated three weeks after application
Method in brief: as §3

barnyard grass [4] = assay: Test Example 5: herbicidal effect by foliage application, plastic box (Table 20, symbol H); format: in vivo, barnyard grass (Echinochloa crus-galli); conditions: amount of applied herbicide 320 g/ha; foliage application after 14-day growth; evaluated three weeks after application
Method in brief: as §3

wild oat [5] = assay: Test Example 5: herbicidal effect by foliage application, plastic box (Table 20, symbol I); format: in vivo, wild oat (Avena fatua); conditions: amount of applied herbicide 320 g/ha; foliage application after 14-day growth; evaluated three weeks after application
Method in brief: as §3

blackgrass [6] = assay: Test Example 5: herbicidal effect by foliage application, plastic box (Table 20, symbol J); format: in vivo, blackgrass (Alopecurus myosuroides); conditions: amount of applied herbicide 320 g/ha; foliage application after 14-day growth; evaluated three weeks after application
Method in brief: as §3

Italian ryegrass [7] = assay: Test Example 5: herbicidal effect by foliage application, plastic box (Table 20, symbol K); format: in vivo, Italian ryegrass (Lolium multiflorum); conditions: amount of applied herbicide 320 g/ha; foliage application after 14-day growth; evaluated three weeks after application
Method in brief: as §3

windgrass [8] = assay: Test Example 5: herbicidal effect by foliage application, plastic box (Table 20, symbol L); format: in vivo, windgrass (Apera spica-venti); conditions: amount of applied herbicide 320 g/ha; foliage application after 14-day growth; evaluated three weeks after application
Method in brief: as §3

velvetleaf [9] = assay: Test Example 5: herbicidal effect by foliage application, plastic box (Table 20, symbol M); format: in vivo, velvetleaf (Abutilon theophrasti); conditions: amount of applied herbicide 320 g/ha; foliage application after 14-day growth; evaluated three weeks after application
Method in brief: as §3

redroot pigweed [10] = assay: Test Example 5: herbicidal effect by foliage application, plastic box (Table 20, symbol N); format: in vivo, redroot pigweed (Amaranthus retroflexus); conditions: amount of applied herbicide 320 g/ha; foliage application after 14-day growth; evaluated three weeks after application
Method in brief: as §3

lambsquarters [11] = assay: Test Example 5: herbicidal effect by foliage application, plastic box (Table 20, symbol O); format: in vivo, lambsquarters (Chenopodium album); conditions: amount of applied herbicide 320 g/ha; foliage application after 14-day growth; evaluated three weeks after application
Method in brief: as §3

chickweed [12] = assay: Test Example 5: herbicidal effect by foliage application, plastic box (Table 20, symbol P); format: in vivo, common chickweed (Stellaria media); conditions: amount of applied herbicide 320 g/ha; foliage application after 14-day growth; evaluated three weeks after application
Method in brief: as §3

persian speedwell = assay: Test Example 5: herbicidal effect by foliage application, plastic box (Table 20, symbol R); format: in vivo, Persian speedwell (Veronica persica); conditions: amount of applied herbicide 320 g/ha; foliage application after 14-day growth; evaluated three weeks after application
Method in brief: as §3

southern crabgrass [13] = assay: Test Example 4: herbicidal effect by soil treatment (Table 19, symbol F); format: in vivo, southern crabgrass (Digitaria ciliaris); conditions: amount of applied herbicide 320 g/ha
Method in brief: (§4)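 Scoring uses the grading scale of an earlier test, three weeks post-application. Treatment consists of spraying a diluted emulsion formulation across the surface of sterilized diluvial soil in which seeds are buried near 1.5 cm deep; boxes are kept in a greenhouse between 25° C. and 30° C.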

green foxtail [14] = assay: Test Example 4: herbicidal effect by soil treatment (Table 19, symbol G); format: in vivo, green foxtail (Setaria viridis); conditions: amount of applied herbicide 320 g/ha
Method in brief: as §4

barnyard grass [15] = assay: Test Example 4: herbicidal effect by soil treatment (Table 19, symbol H); format: in vivo, barnyard grass (Echinochloa crus-galli); conditions: amount of applied herbicide 320 g/ha
Method in brief: as §4

wild oat [16] = assay: Test Example 4: herbicidal effect by soil treatment (Table 19, symbol I); format: in vivo, wild oat (Avena fatua); conditions: amount of applied herbicide 320 g/ha
Method in brief: as §4

blackgrass [17] = assay: Test Example 4: herbicidal effect by soil treatment (Table 19, symbol J); format: in vivo, blackgrass (Alopecurus myosuroides); conditions: amount of applied herbicide 320 g/ha
Method in brief: as §4

Italian ryegrass [18] = assay: Test Example 4: herbicidal effect by soil treatment (Table 19, symbol K); format: in vivo, Italian ryegrass (Lolium multiflorum); conditions: amount of applied herbicide 320 g/ha
Method in brief: as §4

windgrass [19] = assay: Test Example 4: herbicidal effect by soil treatment (Table 19, symbol L); format: in vivo, windgrass (Apera spica-venti); conditions: amount of applied herbicide 320 g/ha
Method in brief: as §4

velvetleaf [20] = assay: Test Example 4: herbicidal effect by soil treatment (Table 19, symbol M); format: in vivo, velvetleaf (Abutilon theophrasti); conditions: amount of applied herbicide 320 g/ha
Method in brief: as §4

redroot pigweed [21] = assay: Test Example 4: herbicidal effect by soil treatment (Table 19, symbol N); format: in vivo, redroot pigweed (Amaranthus retroflexus); conditions: amount of applied herbicide 320 g/ha
Method in brief: as §4

lambsquarters [22] = assay: Test Example 4: herbicidal effect by soil treatment (Table 19, symbol O); format: in vivo, lambsquarters (Chenopodium album); conditions: amount of applied herbicide 320 g/ha
Method in brief: as §4

chickweed [23] = assay: Test Example 4: herbicidal effect by soil treatment (Table 19, symbol P); format: in vivo, common chickweed (Stellaria media); conditions: amount of applied herbicide 320 g/ha
Method in brief: as §4

SMILES | Herbicidal effect, A: late watergrass (late watergrass) | Herbicidal effect, B: Japanese bulrush (Japanese bulrush) | Herbicidal effect, C: oval-leafed pondweed (oval-leafed pondweed) | herbicidal effect on barnyard grass (H) (barnyard grass [1]) | herbicidal effect on Chinese sprangletop (D) (Chinese sprangletop) | herbicidal effect on rice flat sedge (E) (rice flat sedge) | Herbicidal effect by foliage application, F: southern crabgrass (southern crabgrass [2]) | Herbicidal effect by foliage application, G: green foxtail (green foxtail [3]) | Herbicidal effect by foliage application, H: barnyard grass (barnyard grass [4]) | Herbicidal effect by foliage application, I: wild oat (wild oat [5]) | Herbicidal effect by foliage application, J: blackgrass (blackgrass [6]) | Herbicidal effect by foliage application, K: Italian ryegrass (Italian ryegrass [7]) | Herbicidal effect by foliage application, L: windgrass (windgrass [8]) | Herbicidal effect by foliage application, M: velvetleaf (velvetleaf [9]) | Herbicidal effect by foliage application, N: redroot pigweed (redroot pigweed [10]) | Herbicidal effect by foliage application, O: lambsquarters (lambsquarters [11]) | Herbicidal effect by foliage application, P: chickweed (chickweed [12]) | Herbicidal effect by foliage application, R: persian speedwell (persian speedwell) | other results
Cc1nn(C)c(=O)c(-c2c(-c3cccc4c3OCC4)sc3c(Cl)cccc23)c1O [4-098] | 3 (Herbicidal rate of 40% or more and less than 70%) | 0 (Herbicidal rate of 5% or less (almost no effect)) | 0 (Herbicidal rate of 5% or less (almost no effect)) | 4 (Herbicidal rate of 70% or more and less than 90%) | 3 (Herbicidal rate of 40% or more and less than 70%) | 3 (Herbicidal rate of 40% or more and less than 70%) | 3 (Herbicidal rate of 40% or more and less than 70%) | 3 (Herbicidal rate of 40% or more and less than 70%) | 1 (Herbicidal rate of 5% or more and less than 20%) | 0 (Herbicidal rate of 5% or less (almost no effect)) | 0 (Herbicidal rate of 5% or less (almost no effect)) | 0 (Herbicidal rate of 5% or less (almost no effect)) | 2 (Herbicidal rate of 20% or more and less than 40%) | 3 (Herbicidal rate of 40% or more and less than 70%) | 3 (Herbicidal rate of 40% or more and less than 70%) | 3 (Herbicidal rate of 40% or more and less than 70%) | 5 (Herbicidal rate of 90% or more (almost completely withered)) | 5 (Herbicidal rate of 90% or more (almost completely withered)) | 
Cc1nn(C)c(=O)c(-c2c(-c3ccc(F)cc3)sc3c(C)cccc23)c1O [4-100] | 3 (Herbicidal rate of 40% or more and less than 70%) | 3 (Herbicidal rate of 40% or more and less than 70%) | 1 (Herbicidal rate of 5% or more and less than 20%) | 2 (Herbicidal rate of 20% or more and less than 40%) | 0 (Herbicidal rate of 5% or less (almost no effect)) | 0 (Herbicidal rate of 5% or less (almost no effect)) | 0 (Herbicidal rate of 5% or less (almost no effect)) | 0 (Herbicidal rate of 5% or less (almost no effect)) | 0 (Herbicidal rate of 5% or less (almost no effect)) | 0 (Herbicidal rate of 5% or less (almost no effect)) | 3 (Herbicidal rate of 40% or more and less than 70%) | 3 (Herbicidal rate of 40% or more and less than 70%) | 1 (Herbicidal rate of 5% or more and less than 20%) | 5 (Herbicidal rate of 90% or more (almost completely withered)) | 4 (Herbicidal rate of 70% or more and less than 90%) | 5 (Herbicidal rate of 90% or more (almost completely withered)) | 5 (Herbicidal rate of 90% or more (almost completely withered)) | 5 (Herbicidal rate of 90% or more (almost completely withered)) | Herbicidal effect by soil treatment, F: southern crabgrass (southern crabgrass [13]): 0 (Herbicidal rate of 5% or less (almost no effect)); Herbicidal effect by soil treatment, G: green foxtail (green foxtail [14]): 1 (Herbicidal rate of 5% or more and less than 20%); Herbicidal effect by soil treatment, H: barnyard grass (barnyard grass [15]): 0 (Herbicidal rate of 5% or less (almost no effect)); Herbicidal effect by soil treatment, I: wild oat (wild oat [16]): 0 (Herbicidal rate of 5% or less (almost no effect)); Herbicidal effect by soil treatment, J: blackgrass (blackgrass [17]): 0 (Herbicidal rate of 5% or less (almost no effect)); Herbicidal effect by soil treatment, K: Italian ryegrass (Italian ryegrass [18]): 0 (Herbicidal rate of 5% or less (almost no effect)); Herbicidal effect by soil treatment, L: windgrass (windgrass [19]): 0 (Herbicidal rate of 5% or less (almost no effect)); Herbicidal effect by soil treatment, M: velvetleaf (velvetleaf [20]): 3 (Herbicidal rate of 40% or more and less than 70%); Herbicidal effect by soil treatment, N: redroot pigweed (redroot pigweed [21]): 3 (Herbicidal rate of 40% or more and less than 70%); Herbicidal effect by soil treatment, O: lambsquarters (lambsquarters [22]): 4 (Herbicidal rate of 70% or more and less than 90%); Herbicidal effect by soil treatment, P: chickweed (chickweed [23]): 3 (Herbicidal rate of 40% or more and less than 70%)
